Measured values reported in patent US11331369B2, “Endoparasitic depsipeptides” (Zoetis Services LLC, priority 2017, dated 2022).

Key:
Type in all cases: cell-based
[1] = test system: 4th stage larvae (L4) of Dirofilaria immitis; experiment: Dirofilaria immitis, L4 Stage (DiL4) In Vitro Assay; conditions: Dirofilaria immitis, 72 h, read-out: DiL4 Minimum Effective Dose (MED), approximately 72 hours incubation; L4 larvae assessed for survival or paralysis
[2] = test system: third stage larvae of Haemonchus contortus; experiment: Haemonchus contortus L3 (HcL3) Assay; conditions: 96 h, read-out: HcL3 Minimum Effective Dose (MED)
[3] = test system: microfilariae of Dirofilaria immitis; experiment: Dirofilaria immitis, Microfilaria (DiMF) In vitro Assay; conditions: 72 h, read-out: DiMF Minimum Effective Dose (MED), approximately 72 hours incubation, microfilariae assessed for survival or paralysis

CC(C)C[C@H]1C(=O)O[C@H](Cc2ccc(Cn3nccc3C3CCCC3)cc2)C(=O)N(C)[C@@H](CC(C)C)C(=O)O[C@H](C)C(=O)N(C)[C@@H](CC(C)C)C(=O)O[C@H](Cc2ccc(Cn3ccc(C4CCCC4)n3)cc2)C(=O)N(C)[C@@H](CC(C)C)C(=O)O[C@H](C)C(=O)N1C [Example 1a-34, (3S,6R,9S,12R,15S,18R,21S,24R)-6-(4-((3-cyclopentyl-1H-pyrazol-1-yl)methyl)benzyl)-18-(4-((5-cyclopentyl-1H-pyrazol-1-yl)methyl)benzyl)-3,9,15,21-tetraisobutyl-4,10,12,16,22,24-hexamethyl-1,7,13,19-tetraoxa-4,10,16,22-tetraazacyclotetracosan-2,5,8,11,14,17,20,23-octaone]
minimal effective concentration [1]: 0.001 to 0.01 µM

CC(C)C[C@H]1C(=O)O[C@H](Cc2ccc(Cn3ccnc3C(C)C)cc2)C(=O)N(C)[C@@H](CC(C)C)C(=O)O[C@H](C)C(=O)N(C)[C@@H](CC(C)C)C(=O)O[C@H](Cc2ccccc2)C(=O)N(C)[C@@H](CC(C)C)C(=O)O[C@H](C)C(=O)N1C [Example 8-8, (3S,6R,9S,12R,15S,18R,21S,24R)-6-benzyl-3,9,15,21-tetraisobutyl-18-(4-((2-isopropyl-1H-imidazol-1-yl)methyl)benzyl)-4,10,12,16,22,24-hexamethyl-1,7,13,19-tetraoxa-4,10,16,22-tetraazacyclotetracosan-2,5,8,11,14,17,20,23-octaone]
minimal effective concentration [2]: 1 to 10 µM | minimal effective concentration [3]: 0.001 to 0.01 µM

CC(C)C[C@H]1C(=O)O[C@H](Cc2ccc(Cn3ccnc3CO)cc2)C(=O)N(C)[C@@H](CC(C)C)C(=O)O[C@H](C)C(=O)N(C)[C@@H](CC(C)C)C(=O)O[C@H](Cc2ccccc2)C(=O)N(C)[C@@H](CC(C)C)C(=O)O[C@H](C)C(=O)N1C [Example 8-13, (3S,6R,9S,12R,15S,18R,21S,24R)-6-benzyl-18-(4-((2-(hydroxymethyl)-1H-imidazol-1-yl)methyl)benzyl)-3,9,15,21-tetraisobutyl-4,10,12,16,22,24-hexamethyl-1,7,13,19-tetraoxa-4,10,16,22-tetraazacyclotetracosan-2,5,8,11,14,17,20,23-octaone]
minimal effective concentration [2]: 1 to 10 µM | minimal effective concentration [3]: 0.001 to 0.01 µM

CC(C)C[C@H]1C(=O)O[C@H](Cc2ccc(Cn3ccnn3)cc2)C(=O)N(C)[C@@H](CC(C)C)C(=O)O[C@H](C)C(=O)N(C)[C@@H](CC(C)C)C(=O)O[C@H](Cc2ccc(Cn3ccnn3)cc2)C(=O)N(C)[C@@H](CC(C)C)C(=O)O[C@H](C)C(=O)N1C [Example 9-6, (3S,6R,9S,12R,15S,18R,21S,24R)-6,18-bis(4-((1H-1,2,3-triazol-1-yl)methyl)benzyl)-3,9,15,21-tetraisobutyl-4,10,12,16,22,24-hexamethyl-1,7,13,19-tetraoxa-4,10,16,22-tetraazacyclotetracosan-2,5,8,11,14,17,20,23-octaone]
minimal effective concentration [2]: 1 to 10 µM | minimal effective concentration [3]: 0.001 to 0.01 µM

CC(C)C[C@H]1C(=O)O[C@H](Cc2ccc(CN3C(=O)CCC3=O)cc2)C(=O)N(C)[C@@H](CC(C)C)C(=O)O[C@H](C)C(=O)N(C)[C@@H](CC(C)C)C(=O)O[C@H](Cc2ccc(CN3C(=O)CCC3=O)cc2)C(=O)N(C)[C@@H](CC(C)C)C(=O)O[C@H](C)C(=O)N1C [Example 9-11, (3S,6R,9S,12R,15S,18R,21S,24R)-6,18-bis(4-((2,5-dioxopyrrolidin-1-yl)methyl)benzyl)-3,9,15,21-tetraisobutyl-4,10,12,16,22,24-hexamethyl-1,7,13,19-tetraoxa-4,10,16,22-tetraazacyclotetracosan-2,5,8,11,14,17,20,23-octaone]
minimal effective concentration [2]: 1 to 10 µM | minimal effective concentration [3]: 0.001 to 0.01 µM

CC(C)C[C@H]1C(=O)O[C@H](Cc2ccc(Cn3ccccc3=O)cc2)C(=O)N(C)[C@@H](CC(C)C)C(=O)O[C@H](C)C(=O)N(C)[C@@H](CC(C)C)C(=O)O[C@H](Cc2ccc(Cn3ccccc3=O)cc2)C(=O)N(C)[C@@H](CC(C)C)C(=O)O[C@H](C)C(=O)N1C [Example 9-28, (3S,6R,9S,12R,15S,18R,21S,24R)-3,9,15,21-tetraisobutyl-4,6,10,16,18,22-hexamethyl-12,24-bis(4-((2-oxopyridin-1 (2H)-yl)methyl)benzyl)-1,7,13,19-tetraoxa-4,10,16,22-tetraazacyclotetracosan-2,5,8,11,14,17,20,23-octaone]
minimal effective concentration [2]: 1 to 10 µM | minimal effective concentration [3]: 0.001 to 0.01 µM

CC(C)C[C@H]1C(=O)O[C@H](Cc2ccc(Cn3ncnc3-c3ccccc3)cc2)C(=O)N(C)[C@@H](CC(C)C)C(=O)O[C@H](C)C(=O)N(C)[C@@H](CC(C)C)C(=O)O[C@H](Cc2ccc(Cn3ncnc3-c3ccccc3)cc2)C(=O)N(C)[C@@H](CC(C)C)C(=O)O[C@H](C)C(=O)N1C [Example 9-34, (3S,6R,9S,12R,15S,18R,21S,24R)-3,9,15,21-tetraisobutyl-4,6,10,16,18,22-hexamethyl-12,24-bis(4-((5-phenyl-1H-1,2,4-triazol-1-yl)methyl)benzyl)-1,7,13,19-tetraoxa-4,10,16,22-tetraazacyclotetracosan-2,5,8,11,14,17,20,23-octaone]
minimal effective concentration [2]: 1 to 10 µM | minimal effective concentration [3]: 0.001 to 0.01 µM

CC(C)C[C@H]1C(=O)O[C@H](Cc2ccc(Cn3cc4c(n3)CCOC4)cc2)C(=O)N(C)[C@@H](CC(C)C)C(=O)O[C@H](C)C(=O)N(C)[C@@H](CC(C)C)C(=O)O[C@H](Cc2ccc(Cn3cc4c(n3)CCOC4)cc2)C(=O)N(C)[C@@H](CC(C)C)C(=O)O[C@H](C)C(=O)N1C [Example 9-41, (3S,6R,9S,12R,15S,18R,21S,24R)-6,18-bis(4-((6,7-dihydropyrano[4,3-c]pyrazol-2(4H)-yl)methyl)benzyl)-3,9,15,21-tetraisobutyl-4,10,12,16,22,24-hexamethyl-1,7,13,19-tetraoxa-4,10,16,22-tetraazacyclotetracosan-2,5,8,11,14,17,20,23-octaone]
minimal effective concentration [2]: 1 to 10 µM | minimal effective concentration [3]: 0.001 to 0.01 µM

Cc1nc(C2CC2)n(Cc2ccc(C[C@H]3OC(=O)[C@H](CC(C)C)N(C)C(=O)[C@@H](C)OC(=O)[C@H](CC(C)C)N(C)C(=O)[C@@H](Cc4ccc(Cn5nc(C)nc5C5CC5)cc4)OC(=O)[C@H](CC(C)C)N(C)C(=O)[C@@H](C)OC(=O)[C@H](CC(C)C)N(C)C3=O)cc2)n1 [Example 9-57, (3S,6R,9S,12R,15S,18R,21S,24R)-6,18-bis(4-((5-cyclopropyl-3-methyl-1H-1,2,4-triazol-1-yl)methyl)benzyl)-3,9,15,21-tetraisobutyl-4,10,12,16,22,24-hexamethyl-1,7,13,19-tetraoxa-4,10,16,22-tetraazacyclotetracosan-2,5,8,11,14,17,20,23-octaone]
minimal effective concentration [2]: 1 to 10 µM | minimal effective concentration [3]: 0.01 to 0.1 µM

CCc1nc(C)nn1Cc1ccc(C[C@H]2OC(=O)[C@H](CC(C)C)N(C)C(=O)[C@@H](C)OC(=O)[C@H](CC(C)C)N(C)C(=O)[C@@H](Cc3ccc(Cn4nc(C)nc4CC)cc3)OC(=O)[C@H](CC(C)C)N(C)C(=O)[C@@H](C)OC(=O)[C@H](CC(C)C)N(C)C2=O)cc1 [Example 9-59, (3S,6R,9S,12R,15S,18R,21S,24R)-6,18-bis(4-((5-ethyl-3-methyl-1H-1,2,4-triazol-1-yl)methyl)benzyl)-3,9,15,21-tetraisobutyl-4,10,12,16,22,24-hexamethyl-1,7,13,19-tetraoxa-4,10,16,22-tetraazacyclotetracosan-2,5,8,11,14,17,20,23-octaone]
minimal effective concentration [2]: 1 to 10 µM | minimal effective concentration [3]: 0.01 to 0.1 µM

CC(C)C[C@H]1C(=O)O[C@H](C)C(=O)N(C)[C@@H](CC(C)C)C(=O)O[C@H](Cc2ccccc2)C(=O)N(C)[C@@H](CC(C)C)C(=O)O[C@H](C)C(=O)N(C)[C@@H](CC(C)C)C(=O)O[C@@H](Cc2ccc(CN3CCC(F)(F)CC3)cc2)C(=O)N1C [Example 10-3, (3S,6R,9S,12R,15S,18S,21S,24R)-6-benzyl-18-(4-((4,4-difluoropiperidin-1-yl)methyl)benzyl)-3,9,15,21-tetraisobutyl-4,10,12,16,22,24-hexamethyl-1,7,13,19-tetraoxa-4,10,16,22-tetraazacyclotetracosan-2,5,8,11,14,17,20,23-octaone]
minimal effective concentration [2]: 1 to 10 µM | minimal effective concentration [3]: 0.01 to 0.1 µM

CC(C)C[C@H]1C(=O)O[C@H](Cc2ccc(Cn3ccccc3=O)cc2)C(=O)N(C)[C@@H](CC(C)C)C(=O)O[C@H](C)C(=O)N(C)[C@@H](CC(C)C)C(=O)O[C@H](Cc2ccccc2)C(=O)N(C)[C@@H](CC(C)C)C(=O)O[C@H](C)C(=O)N1C [Example 10-17, (3S,6R,9S,12R,15S,18R,21S,24R)-6-benzyl-3,9,15,21-tetraisobutyl-4,10,12,16,22,24-hexamethyl-18-(4-((2-oxopyridin-1 (2H)-yl)methyl)benzyl)-1,7,13,19-tetraoxa-4,10,16,22-tetraazacyclotetracosan-2,5,8,11,14,17,20,23-octaone]
minimal effective concentration [2]: 1 to 10 µM | minimal effective concentration [3]: 0.001 to 0.01 µM

CC(C)C[C@H]1C(=O)O[C@H](Cc2ccc(CN3CCOC3=O)cc2)C(=O)N(C)[C@@H](CC(C)C)C(=O)O[C@H](C)C(=O)N(C)[C@@H](CC(C)C)C(=O)O[C@H](Cc2ccccc2)C(=O)N(C)[C@@H](CC(C)C)C(=O)O[C@H](C)C(=O)N1C [Example 10-18, (3S,6R,9S,12R,15S,18R,21S,24R)-6-benzyl-3,9,15,21-tetraisobutyl-4,10,12,16,22,24-hexamethyl-18-(4-((2-oxooxazolidin-3-yl)methyl)benzyl)-1,7,13,19-tetraoxa-4,10,16,22-tetraazacyclotetracosan-2,5,8,11,14,17,20,23-octaone]
minimal effective concentration [2]: 1 to 10 µM | minimal effective concentration [3]: 0.01 to 0.1 µM
